# Results published in patent US20150329515A1, “COMPOSITION AND METHOD FOR TREATING OR PREVENTING INFLUENZA VIRUS INFECTION” (National Defense Medical Center, priority 2014, published 2015).
# Read-outs that look alike come from different tables or passages of the source.
# Key:
# [1] = test system: Tamiflu-resistant 2009 pandemic influenza A (H1N1) virus (H275Y mutation in neuraminidase); test: in vitro; settings: dog, SI (selective index = CC50/EC50)
# [2] = test system: Tamiflu-resistant 2009 pandemic influenza A (H1N1) virus (H275Y mutation in neuraminidase); settings: for SI (selective index = CC50/EC50), H1N1 Tamiflu-resistant: dog
# in vitro = settings: dog, CC50 (μM)
# [3] = test system: Madin-Darby canine kidney (MDCK) cells
# H1N1 influenza virus = test: In vitro anti-H1N1 influenza virus activity (oseltamivir footnote); type: cell-based
# [4] = read-out: EC50 (μM), H1N1 Tamiflu-resistant
# [5] = read-out: EC50 (μM), H1N1 Tamiflu-resistant virus
Structure (SMILES),selectivity ratio ([1]; H1N1 Tamiflu-resistant),"EC50 [2, 4]",CC50 (in vitro),"EC50 [2, 5]",CC50 [3],other results
"COc1c(O)cc2oc(-c3ccccc3Br)cc(=O)c2c1O [Compound 5a, 2-(2-Bromophenyl)-5,7-dihydroxy-6-methoxy-4H-chromen-4-one]",> 34.9,8.6 µM,> 300 µM,–,–,–
"COc1cc2oc(-c3cccc(Br)c3)cc(=O)c2c(OC)c1OC [Compound 2l, 2-(3-Bromophenyl)-5,6,7-trimethoxy-4H-chromen-4-one]",> 8,4 µM,32.1 µM,–,–,–
"COc1cc2oc(-c3ccc(Br)cc3)cc(=O)c2c(O)c1OC [Compound 4c, 2-(4-Bromophenyl)-5-hydroxy-6,7-dimethoxy-4H-chromen-4-one]",> 66.7,4.2 µM,> 300 µM,–,–,"SI (selective index = CC50/EC50), H1N1 Tamiflu-resistant [2]: >71.4"
O=C(O)c1ccc(-c2cc(=O)c3c(O)c(O)c(O)cc3o2)cc1 [Compound 3h],–,–,–,39.7 µM,> 300 µM,"SI (selective index = CC50/EC50), H1N1 Tamiflu-resistant virus [2]: >7.6"
"O=c1cc(-c2cccc(Br)c2)oc2cc(O)c(O)c(O)c12 [Compound 6b, 2-(3-Bromophenyl)-5,6,7-trihydroxy-4H-chromen-4-one]",> 66.7,4.5 µM,> 300 µM,4.5 µM,–,"selectivity ratio ([1]; H1N1 Tamiflu-resistant virus): > 66.7; SI (selective index = CC50/EC50), H1N1 Tamiflu-resistant [2]: >66.7"
"COc1cc2oc(-c3ccc(Br)cc3)cc(=O)c2c(OC)c1OC [Compound 2m, 2-(4-Bromophenyl)-5,6,7-trimethoxy-4H-chromen-4-one]",0.7,192 µM,128 µM,–,–,–
"O=c1cc(-c2ccc(Br)cc2)oc2cc(O)c(O)c(O)c12 [Compound 6c, 2-(4-Bromophenyl)-5,6,7-trihydroxy-4H-chromen-4-one]",> 66.7,4.5 µM,> 300 µM,4.5 µM,–,"selectivity ratio ([1]; H1N1 Tamiflu-resistant virus): > 66.7; SI (selective index = CC50/EC50), H1N1 Tamiflu-resistant [2]: >66.7"
"O=c1cc(-c2ccccc2Br)oc2cc(O)c(O)c(O)c12 [Compound 6a, 2-(2-Bromophenyl)-5,6,7-trihydroxy-4H-chromen-4-one]",> 33.3,9 µM,> 300 µM,9 µM,–,selectivity ratio ([1]; H1N1 Tamiflu-resistant virus): > 33.3
"CCOC(=O)C1=C[C@@H](OC(CC)CC)[C@H](NC(C)=O)[C@@H](N)C1 [oseltamivir, reference compound]",–,–,–,–,–,activity against H1N1 Tamiflu-resistant virus [2]: void of activity; EC50 (H1N1 influenza virus): 32 µM
O=c1cc(-c2ccc([N+](=O)[O-])cc2)oc2cc(O)c(O)c(O)c12 [Compound 3j],–,–,–,18.1 µM,> 300 µM,"SI (selective index = CC50/EC50), H1N1 Tamiflu-resistant virus [2]: >16.6"
"COc1cc2oc(-c3ccccc3Br)cc(=O)c2c(OC)c1OC [Compound 2k, 2-(2-Bromophenyl)-5,6,7-trimethoxy-4H-chromen-4-one]",8,16 µM,128 µM,–,–,–
"COc1cc2oc(-c3cccc(Br)c3)cc(=O)c2c(O)c1OC [Compound 4b, 2-(3-Bromophenyl)-5-hydroxy-6,7-dimethoxy-4H-chromen-4-one]",> 15.8,4.2 µM,66.5 µM,–,–,–
O=c1cc(-c2ccccc2Cl)oc2cc(O)c(O)c(O)c12 [Compound 3b],–,–,–,10.2 µM,> 300 µM,–
O=c1cc(-c2cccc(Cl)c2)oc2cc(O)c(O)c(O)c12 [Compound 3c],–,–,–,50 µM,> 300 µM,"SI (selective index = CC50/EC50), H1N1 Tamiflu-resistant virus [2]: >6.0"
O=c1cc(-c2ccc(Cl)cc2Cl)oc2cc(O)c(O)c(O)c12 [Compound 3e],–,–,–,73.7 µM,> 300 µM,"SI (selective index = CC50/EC50), H1N1 Tamiflu-resistant virus [2]: >4.1"
"COc1c(O)cc2oc(-c3cccc(Br)c3)cc(=O)c2c1O [Compound 5b, 2-(3-Bromophenyl)-5,7-dihydroxy-6-methoxy-4H-chromen-4-one]",> 66.7,4.3 µM,> 300 µM,–,–,"SI (selective index = CC50/EC50), H1N1 Tamiflu-resistant [2]: >69.8"
O=c1cc(-c2ccc(F)c(Br)c2)oc2cc(O)c(O)c(O)c12 [Compound 3g],–,–,–,204 µM,> 300 µM,"SI (selective index = CC50/EC50), H1N1 Tamiflu-resistant virus [2]: >1.5"
O=c1cc(-c2ccc(Cl)cc2)oc2cc(O)c(O)c(O)c12 [Compound 3d],–,–,–,10.2 µM,> 300 µM,–
"COc1cc2oc(-c3ccccc3Br)cc(=O)c2c(O)c1OC [Compound 4a, 2-(2-Bromophenyl)-5-hydroxy-6,7-dimethoxy-4H-chromen-4-one]",8.3,16.1 µM,133 µM,–,–,–
O=c1cc(-c2ccccc2)oc2cc(O)c(O)c(O)c12 [Compound 3a],–,–,–,92.3 µM,> 300 µM,–
"NC(=O)c1ncn([C@@H]2O[C@H](CO)[C@@H](O)[C@H]2O)n1 [Ribavirin, reference compound]",> 11.7,25.6 µM,> 300 µM,25.6 µM,–,selectivity ratio ([1]; H1N1 Tamiflu-resistant virus): > 11.7
"O=c1cc(-c2ccccc2)oc2cc(O)c(O)c(O)c12 [Baicalein, reference compound]",> 6.5,46.2 µM,> 300 µM,–,–,selectivity ratio ([1]; H1N1 Tamiflu-resistant virus): > 3.3
"O=C(O)[C@H]1O[C@@H](Oc2cc3oc(-c4ccccc4)cc(=O)c3c(O)c2O)[C@H](O)[C@@H](O)[C@@H]1O [Baicalin, reference compound]",> 4.3,69.3 µM,> 300 µM,–,–,–
O=c1cc(-c2ccc(-c3ccccc3)cc2)oc2cc(O)c(O)c(O)c12 [Compound 3i],–,–,–,72 µM,> 300 µM,"SI (selective index = CC50/EC50), H1N1 Tamiflu-resistant virus [2]: >4.2"
"COc1c(O)cc2oc(-c3ccc(Br)cc3)cc(=O)c2c1O [Compound 5c, 2-(4-Bromophenyl)-5,7-dihydroxy-6-methoxy-4H-chromen-4-one]",> 66.7,4.3 µM,> 300 µM,–,–,"SI (selective index = CC50/EC50), H1N1 Tamiflu-resistant [2]: >70.0"
